Source: patent US20240226234A1, “WNT5A PEPTIDES FOR THE TREATMENT OF ACUTE M[…]” (W[…], priority 2021, published 2024)
No end group written: not given here. *: point of attachment. For = O=C*

Key:
Type in all cases: cell-based, human
HL60 cells = assay: ROS production by flow cytometry, HL60 cells; settings: 72 h; for ROS production (MFI): HL60, 2D culture on HS5 stromal cells; for ROS production (mean fluorescence intensity): HL60, monoculture
Method: (§1) A panel of human myeloid leukemia cell lines (HL60, K562, KG1a, THP1 and U937) and HS-5 mesenchymal stromal cells lineage were cultured in Roswell Park Memorial Institute medium-1640 (RPMI; Sigma) containing 10% Fetal Bovine Serum (Gibco), glutamine (2 mM; Sigma), penicillin (100 μg/mL; Sigma), streptomycin (100 μg/mL; Sigma), and amphotericin B (0.25 μg/mL; Gibco). The cells were maintained in a humidified atmosphere at 37° C. and 5% CO2 and the experiments were performed when they reached exponential growth. For the assays, cells were seeded on a 24-well plate and treated or not with Foxy-5 for 72 hours.
(§2) Cells treated with Foxy or with vehicle were collected and intracellular ROS generation was measured by flow cytometry following staining with DCFDA ([…]; Sigma). Acquisition of cells was performed on a FACScalibur flow cytometer (BD) and analysis was carried out using the FlowJo software.
(§3) Leukemia cell lines were treated for 72 h with Foxy-5, at doses of 50 and 100 μM, or vehicle, stained with DCFHA dye, and analyzed by flow cytometry.

U937 cells [1] = assay: Autophagy assay (acridine orange), U937 cells; settings: U937, 2D culture, 72 h
Method: as §1
Cells treated with Foxy or with vehicle were collected and acids vesicles were measured by flow cytometry following staining with Acridine Orange (0.01 mg/mL; Sigma). Acquisition of cells was performed on a FACScalibur flow cytometer (BD) and analysis was carried out using the FlowJo software 4.
As autophagy is required for sustaining leukemia cell growth by induction of ROS production, we measured the levels of acidic granule formation by flow cytometry after Foxy-5 or vehicle treatment. […]

U937 cells [2] = assay: Actin polymerization assay, U937 cells; settings: U937, Foxy-5 100 μM 72 h
Method: F-actin polymerization was analyzed in treated leukemic cell lines using AlexaFluor 633-labeled phalloidin (A22284, Invitrogen) before and after CXCL12 stimulation. The cells were stimulated with CXCL12 (300 ng/ml; Peprotech) in serum-free media at 37 °C for 30 and 120 seconds. The reaction was stopped by adding 3 volumes of paraformaldehyde (3.7%) at room temperature for 10 min, then washed and permeabilized on ice. Cells were stained with 633-phalloidin (2 mg/mL). Flow cytometric data were analyzed using a FACS flow cytometer (BD) followed by FlowJo software analysis. The F-actin content obtained were normalized calculating the ratio between each stimulated cells-mean fluorescence intensity (MFI) values and the nonstimulated cells MFI from the basal levels of the control cells and expressed as fold change.
Therefore, we performed a flow cytometry analysis to evaluate whether Foxy-5 treatment would be able to disrupt actin polymerization. Leukemia cell lines were treated with Foxy-5 (100 μM) or vehicle during 72 hours, stimulated with CXCL12 (300 ng/ml) for 30 or 120 seconds, and stained with […] for detection of actin polymerization by flow cytometry. […] Thus, a significant reduction of actin polymerization was shown after Foxy-5 treatment when compared to untreated cells after 30 seconds of CXCL12 induction (P<. 001).

K562 cells = assay: ROS production by flow cytometry, K562 cells; settings: 72 h; for ROS production (MFI): K562, 2D culture on HS5 stromal cells; for ROS production (mean fluorescence intensity): K562, monoculture
Method: as §1, §2, §3

KG1a cells = assay: Cell growth assay, KG1a cells; settings: Foxy-5 100 μM, 72 h
Method: as §1
Cells treated with Foxy or with vehicle were collected and cell number was evaluated by manual counting in monoculture and by microscopy with Image J software analysis in 2D culture.
Next, we evaluated the proliferation rates since this process is modulated by ROS. We treated the cells with Foxy-5 (100 μM) or with vehicle (DMSO) during 72 hours, and then cell growth was analyzed by counting the cells in monoculture, manually, or by the Image J software analysis of the 2D cultures. […] Similar results were obtained in the 2D culture system using leukemia cells and HS-5 mesenchymal stromal cells.

U937 cells [3] = assay: Cell cycle assay, U937 cells; settings: 72 h
Method: as §1
Cells treated with Foxy or with vehicle were collected and fixed, at least, 24 hours in 70% ethanol. DNA was stained with a buffer containing iodide propidium (20 μg/mL; Sigma) and RNase A (10 μg/mL; Sigma). Cell fluorescence was detected with a FACSCalibur flow cytometer (BD). The proportions of cells in the cell cycle phases were analyzed by Modifit (Verify Software House Inc), according to DNA distributions.
As we observed a reduction in the leukemic proliferation after Foxy-5 treatment, we also analyzed the cell cycle phases. Leukemia cell lines were treated for 72 hours with Foxy-5, at doses of 50 μM and 100 μM, or vehicle, stained with the Piper buffer containing RNAse and iodeto propidium and then analyzed by flow cytometry.

U937 cells [4] = assay: ROS production by flow cytometry, U937 cells; settings: 72 h; for ROS production (MFI): U937, 2D culture on HS5 stromal cells; for ROS production (mean fluorescence intensity): U937, monoculture
Method: as §1, §2, §3

## Foxy-5: Formylated hexapeptide fragment of WNT5A: MDGCEL (SEQ. ID. NO. 3) with methionine in position 1 as N-formyl methionine; WNT5A-mimicking compound (For-MDGCEL; listed as Homo sapiens)
HL60 cells; Foxy-5 50 μM
  ROS production (MFI): 28.52 (range 26.37-30.00) MFI
  ROS production (mean fluorescence intensity): 17.45 (range 16.40-19.30) MFI
HL60 cells; Foxy-5 100 μM
  ROS production (MFI): 28.50 (range 25.03-30.30) MFI
  ROS production (mean fluorescence intensity): 10.32 (range 10.10-10.80) MFI
U937 cells [1]; Foxy-5 50 μM
  autophagy (acidic granule formation, acridine orange, average): 9.40 (range 7.68-11.00) MFI
U937 cells [1]; Foxy-5 100 μM
  autophagy (acidic granule formation, acridine orange, average): 6.30 (range 4.80-8.31) MFI
U937 cells [2]; CXCL12 300 ng/ml for 30 seconds
  F-actin content following CXCL12 stimulation: 3.03 fold increase
U937 cells [2]; CXCL12 300 ng/ml for 120 seconds
  F-actin content following CXCL12 stimulation: 1.26 fold
K562 cells; Foxy-5 50 μM
  ROS production (MFI): 126.00 (range 125.000-128.20) MFI
  ROS production (mean fluorescence intensity): 83.90 (range 75.80-88.40) MFI
K562 cells; Foxy-5 100 μM
  ROS production (MFI): 98.25 (range 98.25-104.00) MFI
  ROS production (mean fluorescence intensity): 68.75 (range 64.40-72.75) MFI
KG1a cells; 2D culture with HS-5 stromal cells
  reduced cell growth compared to vehicle treated cells: 2.63 fold decrease
KG1a cells; monoculture
  reduced cell growth compared to vehicle treated cells: 1.37 fold decrease
U937 cells [3]; U937, co-cultured with HS5 stromal cells, Foxy-5 50 μM
  cells in G0/G1 cell cycle phase (average): 77.37%
U937 cells [3]; U937, co-cultured with HS5 stromal cells, Foxy-5 100 μM
  cells in G0/G1 cell cycle phase (average): 91.52%
U937 cells [3]; U937, monoculture, Foxy-5 50 μM
  cells in G0/G1 cell cycle phase (average): 55.07%
U937 cells [3]; U937, monoculture, Foxy-5 100 μM
  cells in G0/G1 cell cycle phase (average): 56.64%
U937 cells [4]; Foxy-5 50 μM
  ROS production (MFI): 20.90 (range 19.90-22.63) MFI
  ROS production (mean fluorescence intensity): 7.32 (range 4.80-8.67) MFI
U937 cells [4]; Foxy-5 100 μM
  ROS production (MFI): 23.50 (range 21.70-23.80) MFI
  ROS production (mean fluorescence intensity): 7.09 (range 4.70-8.40) MFI
